# Measurements reported in US6087377A (priority 1999, dated 2000).
# “Also recorded” adds a separate entry of the source. Where a name gives a salt, the structure may show the parent alone. Read-outs that look alike come from different tables or passages of the source.
# What was measured:
# [1] = system: beta-glucuronidase; conditions: cited from earlier work
# [2] = system: HT-29 cells; assay: Growth inhibition of human colon adenocarcinoma HT-29 cells; assay type: cell-based
# [3] = system: HT-29 cells; assay: Flow cytometric cell cycle arrest and apoptosis in HT-29 cells; assay type: cell-based, human
# [4] = system: p53; assay: Western immunoblot: p53 level in HT-29 cells; assay type: cell-based, human; conditions: HT-29, mutant (inactive) p53, Western immunoblot
# [5] = system: PCNA; assay: PCNA level in HT-29 cells; assay type: cell-based, human
# [6] = system: p21; assay: p21 detection in HT-29 cells; assay type: cell-based, human
# [7] = system: WI-38 normal human diploid lung fibroblasts; assay: Growth inhibition of WI-38 normal human diploid lung fibroblasts; assay type: cell-based; conditions: WI-38 fibroblasts
# [8] = system: WI-38 normal human diploid lung fibroblasts; assay: Flow cytometry cell cycle arrest, apoptosis and recovery in WI-38 fibroblasts; assay type: cell-based
# [9] = system: p53; assay: p53 level in WI-38 fibroblasts; assay type: cell-based, human; conditions: WI-38, IC90 of SN-38 (40 nM)
# [10] = system: PCNA; assay: PCNA level in WI-38 fibroblasts; assay type: cell-based, human; conditions: WI-38, IC90 of SN-38 (40 nM)
# [11] = system: p21; assay: p21 level in WI-38 fibroblasts; assay type: cell-based, human; conditions: WI-38, following p53 and PCNA increase
# [12] = system: HT-29 cells; conditions: HT-29 human adenocarcinoma cells; Bacon et al. 1996 abstract; cited from earlier work
# [13] = system: WI-38 normal human diploid lung fibroblasts; conditions: normal WI-38 human fibroblasts; cited from earlier work
# [14] = system: cells; conditions: droloxifene, Hasmann et al. 1994; cited from earlier work
# [15] = system: intestinal epithelium; conditions: hamster, in vivo
# [16] = system: proliferating cell nuclear antigen (PCNA); conditions: hamster, in vivo
# [17] = system: cancer patients; conditions: cited from earlier work
# [18] = system: intestinal epithelium; assay: Irinotecan toxicity in the Syrian hamster: intestinal epithelium, diarrhea, weight loss
# [19] = system: proliferating cell nuclear antigen (PCNA); assay: Western immunoblot and immunohistochemistry for PCNA in irinotecan-treated hamster intestinal epithelium; conditions: Western immunoblot
# [20] = system: humans; conditions: loperamide, aggressive high-dose co-therapy, 2 hr intervals at onset of diarrhea; cited from earlier work
# [21] = system: WI-38 cells; assay: Effect of tamoxifen on replication of SN-38-treated normal WI-38 cells; assay type: cell-based, human; conditions: WI-38 (non-tumor) pretreated with tamoxifen prior to and during SN-38 exposure
# [22] = system: hamsters; assay: Tamoxifen pre- and co-treatment of CPT-11-treated hamsters: weight loss and survival; assay type: in vivo, hamster
# [23] = system: hamster colon; assay: Tamoxifen pre- and co-treatment of CPT-11-treated hamsters: colon morphology and function; assay type: in vivo; conditions: tamoxifen pre- and co-treatment with CPT-11
# [24] = system: MCF-7 breast cancer cells; conditions: tamoxifen, Otto et al. 1996, cited from earlier work
# [25] = system: cyclin D1/cdk4; conditions: thought to be the mechanism; Watts et al. 1995; cited from earlier work
smiles,measurement,setting,value
"O=C(O)[C@H]1O[C@@H](Oc2cc3oc(-c4ccccc4)cc(=O)c3c(O)c2O)[C@H](O)[C@@H](O)[C@@H]1O [Baicalin, baicalin]",inhibition of beta-glucuronidase (presumed anti-diarrheal mechanism),[1],has similar activity
CCc1c2c(nc3ccc(O)cc13)-c1cc3c(c(=O)n1C2)COC(=O)[C@]3(O)CC [SN-38],IC90,[2],10 nM
same,inhibition at 0.01 µM,[2]; SN-38 10 nM,> 90%
same,apoptosis / recovery from arrest,"[3]; HT-29, after arrest",cells did not recover but instead underwent programmed cell death (apoptosis)
same,cell cycle arrest (flow cytometry),"[3]; HT-29, growth-arrested cells",replication was blocked in the G2 phase of the cell cycle
same,levels of p53,[4],upregulated
same,PCNA levels,[5],increased
same,p21,[6],p21 is not upregulated; we have been unable to detect p21
same,IC90,[7],40 nM
same,apoptosis,"[8]; WI-38, IC90 of SN-38 (40 nM)",did not undergo apoptosis
same,cell cycle arrest (flow cytometry),"[8]; WI-38, IC90 of SN-38 (40 nM)",arrested in the S phase of the cell cycle
same,re-entry into the cell cycle,"[8]; WI-38, when drug was removed",slowly re-entered the cell cycle when drug was removed
same,levels of p53 (wild type),[9],increased
same,PCNA levels,[10],increased along with PCNA
same,p21,[11],followed by increases in p21
same,cell cycle arrest and apoptosis,[12],arrest in G2 /M followed by apoptosis
same,cell cycle arrest,[13],arrested in S/G2
CC/C(=C(/c1ccc(OCCN(C)C)cc1)c1cccc(O)c1)c1ccccc1 [droloxifene],cell cycle block,[14],block cells in the G1 phase of the cell cycle in a manner similar to tamoxifen
"CCc1c2c(nc3ccc(OC(=O)N4CCC(N5CCCCC5)CC4)cc13)-c1cc3c(c(=O)n1C2)COC(=O)[C@]3(O)CC [irinotecan, irinotecan hydrochloride]",colon epithelium histology,[15],thinned and vacuolated
same,crypt cell replication (bromodeoxyuridine labelling),[15],reduction in crypt cell replication
same,diarrhea and weight loss,[15],coincident with diarrhea and weight loss
same,structural integrity of the mucosal epithelium,[15],time-dependent loss of structural integrity of the mucosal epithelium in the jejunum and ileum; villi appeared corrugated and epithelial cells lost their typical columnar morphology
same,water and electrolyte loss,[15],increased water and electrolyte loss
same,PCNA elevation (Western immunoblot),[16],time-dependent elevation in proliferating cell nuclear antigen (PCNA)
same,PCNA immunohistochemistry,[16],"increase in the number of labelled epithelial cells and labelling intensity in treated animals, with labelled cells positionally located farther towards the villus tip compared to controls"
same,major dose-limiting toxicity,[17]; cancer patients,severe delayed chronic grade 3-4 diarrhea
same,intestinal toxicity (diarrhea),"[17]; humans, CAMPTOSAR Injection",potentially life-threatening intestinal toxicity (diarrhea)
same,antitumor activity,[17]; variety of tumor types,"activity against a variety of tumor types, and in particular refractory colorectal tumors"
same,toxicity to the intestinal epithelium,[18]; coincident with onset of delayed diarrhea,considerable toxicity to the intestinal epithelium
same,crypts / epithelial cells,[18]; histology,apparent reduction of crypts and/or a loss of epithelial cells
same,time of detection of PCNA elevation,[19],1 days
CN(C)C(=O)C(CCN1CCC(O)(c2ccc(Cl)cc2)CC1)(c1ccccc1)c1ccccc1 [loperamide],control of diarrhea,[20],successful in most cases
CC/C(=C(\c1ccccc1)c1ccc(OCCN(C)C)cc1)c1ccccc1 [tamoxifen],recovery of replication after SN-38,[21],regained replication kinetics to a greater extent; also recorded: enhances the recovery of a non-tumor cell line from SN-38-induced inhibition
same,weight loss associated with CPT-11 administration,[22]; tamoxifen pre- and co-treatment,reduced; also recorded: reduces weight loss attributable to diarrhea
same,survival,[22]; tamoxifen pre- and co-treatment with CPT-11,survival increased
same,morphology and function of the colon,[23],improvement in morphology and function of the hamster colon; also recorded: reduces the colonic pathology and physiological effects
same,cell cycle block,[24],blocks cell cycle progression in G0 /G1
same,cell cycle block,[24]; listed as Tamoxifen,block in the G0 /G1 phase of the cell cycle
same,repression of G1-specific protein kinase activity,[25],repression of G1 -specific protein kinase activity
